# Data published in ChEMBL document CHEMBL1201862, “PubChem BioAssay data set” (2004).
# Calls of active or inactive are those of the source.
# How the values were obtained:
# [1] = target: T1, Heat shock factor protein 1 (Mus musculus, UniProt P38532); assay: inhibition of MG132-induced HSE-luciferase signal, confirmation, cell-based, NIH3T3, luminescence, dose retest (AID 2382); assay type: functional;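 note: NIH3T3 fibroblasts with HSF1-driven luciferase reporter stressed by proteasome inhibitor MG132; luminescence from HSF1-driven luciferase expression after 8 hours of MG132 stress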
# T1 sequence (P38532 whole entry): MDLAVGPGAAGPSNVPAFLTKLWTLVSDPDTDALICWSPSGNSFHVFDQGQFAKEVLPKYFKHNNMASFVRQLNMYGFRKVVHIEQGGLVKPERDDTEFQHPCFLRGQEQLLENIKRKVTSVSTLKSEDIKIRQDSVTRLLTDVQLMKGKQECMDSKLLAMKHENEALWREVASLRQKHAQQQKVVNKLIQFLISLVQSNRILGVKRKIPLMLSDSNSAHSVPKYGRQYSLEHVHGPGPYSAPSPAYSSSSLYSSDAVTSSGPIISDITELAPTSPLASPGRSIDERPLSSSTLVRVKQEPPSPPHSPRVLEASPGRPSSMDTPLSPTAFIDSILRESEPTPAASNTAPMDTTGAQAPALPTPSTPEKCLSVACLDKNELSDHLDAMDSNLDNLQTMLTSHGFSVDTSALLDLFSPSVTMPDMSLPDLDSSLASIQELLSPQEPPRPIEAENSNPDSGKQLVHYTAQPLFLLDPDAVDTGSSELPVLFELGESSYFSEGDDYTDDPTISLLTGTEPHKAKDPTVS
# [2] = target: T2, RNA-binding protein pos-1 (Caenorhabditis elegans, UniProt G5EF15); assay: inhibitors of POS-1/mex-3 RNA binding, dose response, biochemical, fluorescence polarization (AID 1964);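 note: purified POS-1 fused to maltose binding protein made in E. coli; potency of compounds blocking POS-1 binding to fluorescent RNA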
# T2 sequence (G5EF15 whole entry): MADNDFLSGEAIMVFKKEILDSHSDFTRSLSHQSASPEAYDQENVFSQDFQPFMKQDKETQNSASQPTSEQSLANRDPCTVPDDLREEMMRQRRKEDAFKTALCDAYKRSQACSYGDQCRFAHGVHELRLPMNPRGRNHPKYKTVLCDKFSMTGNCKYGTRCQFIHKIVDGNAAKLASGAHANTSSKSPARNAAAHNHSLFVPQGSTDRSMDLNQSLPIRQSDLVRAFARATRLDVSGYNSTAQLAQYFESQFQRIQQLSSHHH
# [3] = target: T3, Zinc finger protein mex-5 (Caenorhabditis elegans, UniProt Q9XUB2); assay: MEX-5/TCR-2 RNA interaction inhibitors, dose response, biochemical, C. elegans, fluorescence polarization (AID 1960)
# T3 sequence (Q9XUB2 whole entry): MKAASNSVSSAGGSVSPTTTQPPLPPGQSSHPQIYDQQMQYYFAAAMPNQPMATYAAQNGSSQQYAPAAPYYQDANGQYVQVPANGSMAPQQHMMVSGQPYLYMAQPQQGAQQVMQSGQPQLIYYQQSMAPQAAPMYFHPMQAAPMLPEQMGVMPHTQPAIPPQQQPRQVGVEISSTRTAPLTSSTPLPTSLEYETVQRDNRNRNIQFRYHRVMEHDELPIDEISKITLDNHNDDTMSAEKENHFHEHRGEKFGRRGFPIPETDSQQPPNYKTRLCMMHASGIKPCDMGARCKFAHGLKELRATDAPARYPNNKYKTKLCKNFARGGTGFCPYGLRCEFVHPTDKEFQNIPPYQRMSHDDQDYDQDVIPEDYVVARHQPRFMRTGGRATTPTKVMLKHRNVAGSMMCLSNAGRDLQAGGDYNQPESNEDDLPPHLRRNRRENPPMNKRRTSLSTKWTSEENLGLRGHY
# [4] = target: T4, Rac GTPase-activating protein 1 (Homo sapiens, UniProt Q9H0H5); assay: MgcRacGAP GTPase-activating activity inhibitors, confirmation, biochemical, ADP Hunter fluorescence, primary and confirmatory (AID 624330); assay type: functional
# T4 sequence (Q9H0H5 whole entry): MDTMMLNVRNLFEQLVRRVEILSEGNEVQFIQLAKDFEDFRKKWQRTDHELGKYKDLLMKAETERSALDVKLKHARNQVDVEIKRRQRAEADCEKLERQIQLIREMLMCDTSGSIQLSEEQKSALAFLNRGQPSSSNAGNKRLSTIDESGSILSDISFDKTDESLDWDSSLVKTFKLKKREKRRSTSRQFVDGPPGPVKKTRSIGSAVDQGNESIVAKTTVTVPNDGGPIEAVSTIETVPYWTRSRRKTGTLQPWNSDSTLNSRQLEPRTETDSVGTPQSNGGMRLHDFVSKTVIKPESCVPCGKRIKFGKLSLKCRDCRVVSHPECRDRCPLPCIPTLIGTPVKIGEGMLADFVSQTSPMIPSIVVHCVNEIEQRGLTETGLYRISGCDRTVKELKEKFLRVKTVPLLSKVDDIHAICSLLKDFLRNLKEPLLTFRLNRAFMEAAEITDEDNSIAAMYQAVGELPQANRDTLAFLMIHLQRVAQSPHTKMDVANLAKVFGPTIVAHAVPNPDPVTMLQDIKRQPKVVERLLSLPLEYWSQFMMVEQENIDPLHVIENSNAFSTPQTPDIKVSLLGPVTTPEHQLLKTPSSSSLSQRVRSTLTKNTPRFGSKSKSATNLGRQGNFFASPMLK
# [5] = target: T5, Corticotropin-releasing factor receptor 2/Corticotropin-releasing factor-binding protein (Homo sapiens, UniProt P24387+Q13324); assay: activators of CRF receptor 2 with binding protein – uHTS hits, confirmation (AID 602473); assay type: functional; conditions: read-out: EC50_Mean
# T5 sequence (Q13324 whole entry): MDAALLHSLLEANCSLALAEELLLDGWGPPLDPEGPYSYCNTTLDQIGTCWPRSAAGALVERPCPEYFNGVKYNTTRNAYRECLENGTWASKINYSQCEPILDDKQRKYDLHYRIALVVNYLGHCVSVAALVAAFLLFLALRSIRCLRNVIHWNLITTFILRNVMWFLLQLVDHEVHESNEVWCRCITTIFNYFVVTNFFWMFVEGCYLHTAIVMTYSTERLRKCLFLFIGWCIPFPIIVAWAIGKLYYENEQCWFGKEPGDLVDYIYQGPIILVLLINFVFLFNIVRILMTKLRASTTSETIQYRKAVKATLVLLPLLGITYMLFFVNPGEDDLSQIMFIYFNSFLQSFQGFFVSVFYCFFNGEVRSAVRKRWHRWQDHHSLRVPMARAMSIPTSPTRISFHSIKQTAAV
# T5 sequence (P24387 whole entry): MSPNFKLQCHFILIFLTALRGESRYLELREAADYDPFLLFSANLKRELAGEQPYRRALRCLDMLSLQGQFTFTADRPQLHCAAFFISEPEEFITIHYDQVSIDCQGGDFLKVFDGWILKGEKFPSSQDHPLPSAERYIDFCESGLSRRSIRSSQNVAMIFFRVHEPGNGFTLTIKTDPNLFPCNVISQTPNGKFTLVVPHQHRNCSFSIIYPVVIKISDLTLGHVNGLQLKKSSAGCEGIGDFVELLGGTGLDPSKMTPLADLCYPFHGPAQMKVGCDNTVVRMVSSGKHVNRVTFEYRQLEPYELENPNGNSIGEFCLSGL
# [6] = target: Cytochrome P450 2C19 (Homo sapiens, UniProt P33261); assay: Cytochrome panel assay with activity outcomes. Panel member name: p450-cyp2c19 Compounds with AC50 equal or less than 10 uM are considered active; assay type: functional; conditions: read-out: AC50
# [7] = target: T6, Cytochrome P450 1A2 (Homo sapiens, UniProt P05177);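 note: PubChem cytochrome P450 panel assay, CYP1A2 panel member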
# T6 sequence (P05177 whole entry): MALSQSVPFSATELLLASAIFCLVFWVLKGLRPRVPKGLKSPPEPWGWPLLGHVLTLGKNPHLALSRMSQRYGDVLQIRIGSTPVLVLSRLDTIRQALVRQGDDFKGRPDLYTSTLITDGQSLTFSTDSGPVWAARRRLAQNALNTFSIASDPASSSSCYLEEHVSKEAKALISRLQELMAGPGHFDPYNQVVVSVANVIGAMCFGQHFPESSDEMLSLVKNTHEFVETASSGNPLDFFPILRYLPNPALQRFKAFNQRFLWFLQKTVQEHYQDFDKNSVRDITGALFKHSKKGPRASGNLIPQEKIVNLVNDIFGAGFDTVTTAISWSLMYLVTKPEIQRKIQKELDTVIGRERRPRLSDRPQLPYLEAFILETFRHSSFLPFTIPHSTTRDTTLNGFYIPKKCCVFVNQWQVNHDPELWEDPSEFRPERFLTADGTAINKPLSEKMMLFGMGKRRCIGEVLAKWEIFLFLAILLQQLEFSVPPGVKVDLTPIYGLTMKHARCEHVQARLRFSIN
# Sequence of Cytochrome P450 2C19 (P33261 whole entry): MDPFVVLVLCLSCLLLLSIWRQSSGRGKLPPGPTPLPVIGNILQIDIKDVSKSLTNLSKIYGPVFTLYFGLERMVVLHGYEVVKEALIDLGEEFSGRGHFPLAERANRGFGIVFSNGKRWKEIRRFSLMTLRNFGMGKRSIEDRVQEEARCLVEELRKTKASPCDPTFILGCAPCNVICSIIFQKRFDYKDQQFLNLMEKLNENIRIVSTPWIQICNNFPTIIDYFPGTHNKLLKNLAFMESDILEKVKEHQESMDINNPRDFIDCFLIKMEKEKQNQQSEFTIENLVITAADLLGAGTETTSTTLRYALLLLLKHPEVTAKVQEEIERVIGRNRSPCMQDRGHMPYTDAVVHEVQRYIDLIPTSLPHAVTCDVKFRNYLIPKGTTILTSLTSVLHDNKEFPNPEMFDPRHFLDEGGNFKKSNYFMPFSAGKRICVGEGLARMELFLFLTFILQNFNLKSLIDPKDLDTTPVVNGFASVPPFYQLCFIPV
compound,measurement,setting,value
Cc1oc(C(=O)O)cc1COc1ccc2c3c(c(=O)oc2c1C)CCC3,EC50,[1],> 195 µM (not active)
Cc1cc(C)c2cc(CN(CCN(C)C)C(=O)Nc3ccccc3Cl)c(O)nc2c1,EC50,[1],> 195 µM (not active)
O=C(NNC(=O)c1ccccc1[N+](=O)[O-])c1csc(N2CCOCC2)n1,EC50,[2],84.9 µM (active)
same,EC50,[3],0.731 µM (active)
C=CCN1C(=O)NC(=O)/C(=C/C=C/Nc2ccccc2)C1=O,EC50,[2],> 300 µM (not active)
same,EC50,[3],> 300 µM (inconclusive)
COc1ccc2c(COC(=O)CCS(=O)(=O)c3ccc(C)cc3)cc(=O)oc2c1,EC50,[1],> 195 µM (not active)
COc1cc(C(=O)NC(c2ccccc2)c2ccccc2)cc(OC)c1C,EC50,[2],> 300 µM (not active)
same,EC50,[3],> 300 µM (not active)
O=C(NC(=O)c1cccc(F)c1)OC[C@@H]1CCCN2CCCC[C@H]12,EC50,[1],> 195 µM (not active)
Cc1ccc(-c2nn[nH]n2)o1,EC50,[1],> 195 µM (not active)
Cc1nn(C(C)C(=O)NCCCc2ccccc2)c(=O)c2cc3occc3n12 (stereo not given),EC50,[1],> 195 µM (not active)
Cc1ccc(C)c(NC(=O)CCc2nnc3ccc(NCc4ccco4)nn23)c1,EC50,[1],> 195 µM (not active)
COc1ccc(CN(C)CCc2ccccn2)cc1OC,IC50,[4],74.6 µM (active)
O=C(CSc1nnc(CNC(=O)c2cccs2)o1)NCc1ccc(F)cc1,EC50,[1],> 195 µM (not active)
CCOC(=O)C1CCN(C2=NC(=O)/C(=C/c3ccc(O)cc3)S2)CC1,IC50,[4],21.2 µM (active)
CCOC(=O)c1c(NC(=O)CN2CCCCC2)sc2c1CCC(C=O)=C2Cl,EC50,[1],> 195 µM (not active)
COc1ccc2oc(=O)c(N3C(=O)c4ccccc4C3=O)cc2c1,EC50,[1],> 195 µM (not active)
COc1ccc(NC(=O)CCc2nnc3ccc(N4CCC(C)CC4)nn23)cc1OC,EC50,[1],> 195 µM (not active)
Cc1cccc(C)c1NC(=O)c1cccnc1,EC50,[1],> 195 µM (not active)
O=C(Cc1coc2cc(O)ccc12)NNC(=O)c1cccs1,IC50,[4],32.7 µM (active)
Cc1ccc2c(c1)N(C(=O)CCC(=O)N1CCN(c3ccccn3)CC1)CCO2,EC50,[5],> 53 µM (inactive)
O=C(Cc1ccccc1)Nc1ccc(N2CCOCC2)cc1N1CCOCC1,EC50,[2],> 300 µM (not active)
same,EC50,[3],> 300 µM (not active)
CC1(C)CC2=Nc3ccccc3NCC2=C(O)C1,EC50,[5],> 53 µM (inactive)
Cc1cc(C)nc(NNC2=CC(=[N+]3CCCCC3)CC(C)(C)C2)n1,EC50,[1],> 195 µM (not active)
CCN(CC)CCN1C(=O)C(O)=C(C(=O)c2cc3cccc(OC)c3o2)C1c1ccc(F)cc1 (stereo not given),EC50,[2],> 300 µM (not active)
same,EC50,[3],> 300 µM (not active)
CC1CCC2(CC1)N=C(N)Nc1nc3ccccc3n12 (stereo not given),AC50,[6],17.8 µM (inconclusive)
same,AC50,[7],12.6 µM (inconclusive)
same,EC50,[1],> 195 µM (not active)
Cc1onc(-c2ccccc2)c1C(=O)Nc1sc2c(c1C(N)=O)CCC2,EC50,[1],> 195 µM (not active)
Cc1ccc2c(c1)C1C=CCC1C(C(=O)NCCCN1CCOCC1)N2 (stereo not given),EC50,[2],> 300 µM (not active)
same,EC50,[3],> 300 µM (not active)
COc1cc(C2C(C#N)=C(N)N(N(C)C)C3=C2C(=O)CC(C)(C)C3)ccc1O (stereo not given),EC50,[1],> 195 µM (not active)
CCOc1ccccc1N1CCN(CC(=O)NC(C)c2ccccc2)CC1 (stereo not given),EC50,[1],> 195 µM (not active)
COc1cc(/C=C/C(=O)OCC(=O)NCc2ccc(F)cc2)ccc1O,IC50,[4],36.3 µM (active)
CC(Oc1ccc(Br)cc1)C(=O)Nc1ccc(S(=O)(=O)NC2=NCCCCC2)cc1 (stereo not given),EC50,[5],4.66 µM (active)
CCOc1ccc(C2=CC(c3ccccc3)n3ncnc3N2)cc1 (stereo not given),EC50,[5],> 53 µM (inactive)
COc1cc(/C=C/c2nc(O)c3ccccc3n2)ccc1O,IC50,[4],41.4 µM (active)
Cc1nn(CC(=O)N(C)C2(C#N)CCCCC2)c(C)c1[N+](=O)[O-],EC50,[5],> 53 µM (inactive)
Cc1ccc(S(=O)(=O)NCC(=O)N(CC(=O)NCc2ccco2)Cc2ccccc2)cc1,EC50,[5],10.1 µM (active)
COc1ccc(NC2CCCN(C(=O)COc3ccc(C(C)=O)cc3)C2)cc1 (stereo not given),IC50,[4],84 µM (active)
C=CCn1c(N/N=C/c2ccc(O)cc2)nc2ccccc2c1=O,IC50,[4],46.8 µM (active)
CCOc1ccc(/C=N/NC(=O)C(O)c2ccccc2)c(O)c1 (stereo not given),EC50,[1],> 195 µM (not active)
COCCNC(=O)Cn1cc(/C=N/NC(=O)c2ccc(Oc3ccc(O)cc3)cc2)c2ccccc21,IC50,[4],53.3 µM (active)
COc1ccc(/N=C2/SC(C(=O)N3CCN(c4ccccc4)CC3)CC(=O)N2C)cc1 (stereo not given),EC50,[1],> 195 µM (not active)
COc1cc(/C=N/Nc2ccc(C(F)(F)F)cn2)ccc1O,IC50,[4],36.3 µM (active)
Cc1cc(/C=N/n2cnnc2)c(C)n1-c1cccc(C(=O)O)c1,EC50,[2],> 300 µM (not active)
same,EC50,[3],> 300 µM (not active)
